Tests used:
SERT = conditions: cited from earlier work
SERT S277C/X5C = assay: Cysteine accessibility, cytoplasmic pathway: MTSEA reactivity with S277C/X5C; format: cell-based; conditions: 10 μM ligand, digitonin-permeabilized cells, compared with the control
SERT Y107C/C109A = assay: Cysteine accessibility, extracellular pathway: MTSET reactivity with Y107C/C109A; format: cell-based; conditions: 10 μM ligand, compared with the control (MTSET alone)
hSERT T583A = biological target: T1, hSERT T583A (Homo sapiens, UniProt P31645, T583A); assay: APP^+ uptake, hSERT T583A; format: cell-based; conditions: S2 site mutant
T1 construct: forward and reverse primers were used to amplify a full-length hSERT; expressed in transfected cells; host or cells: HeLa

hSERT Y579A = biological target: T2, hSERT Y579A (Homo sapiens, UniProt P31645, Y579A); assay: APP^+ uptake, hSERT Y579A; format: cell-based; conditions: S2 site mutant
T2 construct: forward and reverse primers were used to amplify a full-length hSERT; expressed in transfected cells; host or cells: HeLa

hSERT G498T = biological target: T3, hSERT G498T (Homo sapiens, UniProt P31645, G498T); assay: APP^+ uptake, hSERT G498T; format: cell-based; conditions: S2 site mutant
T3 construct: forward and reverse primers were used to amplify a full-length hSERT; expressed in transfected cells; host or cells: HeLa cells, transient, pcDNA3.1

hSERT S559A = biological target: T4, hSERT S559A (Homo sapiens, UniProt P31645, S559A); assay: APP^+ uptake, hSERT S559A; format: cell-based; conditions: S2 site mutant
T4 construct: forward and reverse primers were used to amplify a full-length hSERT; expressed in transfected cells; host or cells: HeLa cells, transient, pcDNA3.1

hSERT E494Q = biological target: T5, hSERT E494Q (Homo sapiens, UniProt P31645, E494Q); assay: APP^+ uptake, hSERT E494Q; format: cell-based; conditions: S2 site mutant
T5 construct: forward and reverse primers were used to amplify a full-length hSERT; expressed in transfected cells; host or cells: HeLa cells, transient, pcDNA3.1

hSERT P560G = biological target: T6, hSERT P560G (Homo sapiens, UniProt P31645, P560G); assay: APP^+ uptake, hSERT P560G; format: cell-based; conditions: S2 site mutant
T6 construct: forward and reverse primers were used to amplify a full-length hSERT; expressed in transfected cells; host or cells: HeLa cells, transient, pcDNA3.1

hSERT Q111N = biological target: T7, hSERT Q111N (Homo sapiens, UniProt P31645, Q111N); assay: APP^+ uptake, hSERT Q111N; format: cell-based; conditions: S2 site mutant
T7 construct: forward and reverse primers were used to amplify a full-length hSERT; expressed in transfected cells; host or cells: HeLa cells, transient, pcDNA3.1

hSERT T497A = biological target: T8, hSERT T497A (Homo sapiens, UniProt P31645, T497A); assay: APP^+ uptake, hSERT T497A; format: cell-based; conditions: S2 site mutant
T8 construct: forward and reverse primers were used to amplify a full-length hSERT; expressed in transfected cells; host or cells: HeLa cells, transient, pcDNA3.1

hSERT L563A = biological target: T9, hSERT L563A (Homo sapiens, UniProt P31645, L563A); assay: APP^+ uptake, hSERT L563A; format: cell-based; conditions: S2 site mutant
T9 construct: forward and reverse primers were used to amplify a full-length hSERT; expressed in transfected cells; host or cells: HeLa

hSERT I327A = biological target: T10, hSERT I327A (Homo sapiens, UniProt P31645, I327A); assay: APP^+ uptake, hSERT I327A; format: cell-based; conditions: S2 site mutant
T10 construct: forward and reverse primers were used to amplify a full-length hSERT; expressed in transfected cells; host or cells: HeLa cells, transient, pcDNA3.1

hSERT R564A = biological target: T11, hSERT R564A (Homo sapiens, UniProt P31645, R564A); assay: APP^+ uptake, hSERT R564A; format: cell-based; conditions: S2 site mutant
T11 construct: forward and reverse primers were used to amplify a full-length hSERT; expressed in transfected cells; host or cells: HeLa

hSERT P499G = biological target: T12, hSERT P499G (Homo sapiens, UniProt P31645, P499G); assay: APP^+ uptake, hSERT P499G; format: cell-based; conditions: S2 site mutant
T12 construct: forward and reverse primers were used to amplify a full-length hSERT; expressed in transfected cells; host or cells: HeLa cells, transient, pcDNA3.1

hSERT F556A = biological target: T13, hSERT F556A (Homo sapiens, UniProt P31645, F556A); assay: APP^+ uptake, hSERT F556A; format: cell-based; conditions: S2 site mutant
T13 construct: forward and reverse primers were used to amplify a full-length hSERT; expressed in transfected cells; host or cells: HeLa cells, transient, pcDNA3.1

hSERT L565A = biological target: T14, hSERT L565A (Homo sapiens, UniProt P31645, L565A); assay: APP^+ uptake, hSERT L565A; format: cell-based; conditions: S2 site mutant
T14 construct: forward and reverse primers were used to amplify a full-length hSERT; expressed in transfected cells; host or cells: HeLa

hSERT WT = biological target: T15, hSERT WT (Homo sapiens, UniProt P31645); assay: APP^+ uptake, hSERT WT; format: cell-based; conditions: WT
T15 construct: forward and reverse primers were used to amplify a full-length hSERT; expressed in transfected cells; host or cells: HeLa cells (CCL-2), transient, pcDNA3.1

hSERT Q562N = biological target: T16, hSERT Q562N (Homo sapiens, UniProt P31645, Q562N); assay: APP^+ uptake, hSERT Q562N; format: cell-based; conditions: S2 site mutant
T16 construct: forward and reverse primers were used to amplify a full-length hSERT; expressed in transfected cells; host or cells: HeLa

hSERT P561G = biological target: T17, hSERT P561G (Homo sapiens, UniProt P31645, P561G); assay: APP^+ uptake, hSERT P561G; format: cell-based; conditions: S2 site mutant
T17 construct: forward and reverse primers were used to amplify a full-length hSERT; expressed in transfected cells; host or cells: HeLa

hSERT E493N = biological target: T18, hSERT E493N (Homo sapiens, UniProt P31645, E493N); assay: APP^+ uptake, hSERT E493N; format: cell-based; conditions: S2 site mutant
T18 construct: forward and reverse primers were used to amplify a full-length hSERT; expressed in transfected cells; host or cells: HeLa cells, transient, pcDNA3.1

hSERT D328A = biological target: T19, hSERT D328A (Homo sapiens, UniProt P31645, D328A); assay: APP^+ uptake, hSERT D328A; format: cell-based; conditions: S2 site mutant
T19 construct: forward and reverse primers were used to amplify a full-length hSERT; expressed in transfected cells; host or cells: HeLa cells, transient, pcDNA3.1

For `COc1cc(C2OCC3C(c4cc(OC)c(OC5OC(CO)C(O)C(O)C5OC5OCC(O)(CO)C5O)c(OC)c4)OCC23)cc(OC)c1O` (single isomer, unassigned; (-)) [SAG, (-)-syringaresinol-4-O-D-apiofuranosyl-(1→2)-D-glucopyranoside], the “inhibitory potency against SERT” value (SERT) is given as “a few micromolar range” and the “mode of inhibition of SERT activity” value (SERT) is given as “noncompetitively inhibit”.

In the case of `COc1cc(C2OCC3C(c4cc(OC)c(O[C@@H]5O[C@H](CO)[C@@H](O)[C@H](O)[C@H]5O)c(OC)c4)OCC23)cc(OC)c1O[C@@H]1O[C@H](CO)[C@@H](O)[C@H](O)[C@H]1O` (single isomer, unassigned; (-)) [SBG, (-)-syringaresinol-4,4′-bis-O-β-D-glucopyranoside], the “inhibitory potency against SERT” value (SERT) is listed as “a few micromolar range” and the “mode of inhibition of SERT activity” value (SERT) is listed as “noncompetitively inhibit”.

In the case of `NCCc1c[nH]c2ccc(O)cc12` [5-HT, 5-hydroxytryptamine, reference compound], the “rate constant of MTSEA reactivity with S277C/X5C” value (SERT S277C/X5C) is reported as “increased” and the “rate constant of MTSET reactivity with Y107C/C109A” value (SERT Y107C/C109A) is reported as “decreased”.

Work on `CN(C)c1ccc(-c2cc[n+](C)cc2)cc1` [APP^+, 4-(4-(dimethylamino)phenyl)-1-methylpyridinium] yielded a Vmax (hSERT T583A; APP^+ transport) of 26.97 ± 0.26 AFU/min, a Km (hSERT T583A) of 3.68 ± 0.15 µM and a Vmax (hSERT Y579A; APP^+ transport) of 23.89 ± 2.33 AFU/min. For the same compound, the Km (hSERT Y579A) was 2810 ± 80 nM, the Vmax (hSERT G498T; APP^+ transport) was 26.30 ± 1.52 AFU/min and the Km (hSERT G498T) was 3.75 ± 0.32 µM. The Vmax (hSERT S559A; APP^+ transport) was 23.68 ± 0.57 AFU/min, the Km (hSERT S559A) was 3.82 ± 0.55 µM and the Vmax (hSERT E494Q; APP^+ transport) was 31.12 ± 0.89 AFU/min. For the same compound, the Km (hSERT E494Q) was 6.83 ± 0.86 µM, the Vmax (hSERT P560G; APP^+ transport) was 21.70 ± 0.90 AFU/min and the Km (hSERT P560G) was 1850 ± 160 nM. The Vmax (hSERT Q111N; APP^+ transport) was 26.93 ± 1.35 AFU/min, the Km (hSERT Q111N) was 3.69 ± 0.36 µM and the Vmax (hSERT T497A; APP^+ transport) was 26.63 ± 1.09 AFU/min. For the same compound, the Km (hSERT T497A) was 3.85 ± 0.06 µM, the Vmax (hSERT L563A; APP^+ transport) was 23.53 ± 0.45 AFU/min and the Km (hSERT L563A) was 1530 ± 70 nM. The Vmax (hSERT I327A; APP^+ transport) was 26.54 ± 1.43 AFU/min, the Km (hSERT I327A) was 4.27 ± 0.79 µM and the Vmax (hSERT R564A; APP^+ transport) was 27.10 ± 0.08 AFU/min. It also gave a Km (hSERT R564A) of 3.41 ± 0.12 µM, a Vmax (hSERT P499G; APP^+ transport) of 27.28 ± 0.43 AFU/min and a Km (hSERT P499G) of 3.72 ± 0.45 µM. For the same compound, the Vmax (hSERT F556A; APP^+ transport) was 26.84 ± 1.74 AFU/min, the Km (hSERT F556A) was 4.69 ± 1.02 µM and the Vmax (hSERT L565A; APP^+ transport) was 21.13 ± 0.16 AFU/min. It also gave a Km (hSERT L565A) of 680 ± 40 nM, a Vmax (hSERT WT; APP^+ transport) of 22.98 ± 0.92 AFU/min and a Km (hSERT WT) of 2240 ± 450 nM. It also gave a Vmax (hSERT Q562N; APP^+ transport) of 23.57 ± 1.49 AFU/min, a Km (hSERT Q562N) of 1850 ± 360 nM and a Vmax (hSERT P561G; APP^+ transport) of 26.55 ± 1.08 AFU/min. It also gave a Km (hSERT P561G) of 2730 ± 90 nM, a Vmax (hSERT E493N; APP^+ transport) of 25.48 ± 0.96 AFU/min and a Km (hSERT E493N) of 4.83 ± 0.19 µM. For the same compound, the Vmax (hSERT D328A; APP^+ transport) was 27.83 ± 0.85 AFU/min and the Km (hSERT D328A) was 3.81 ± 0.27 µM.

Reference: PMC11678425, “(-)-Syringaresinol Exerts an Antidepressant-like Activity in Mice by Noncompetitive Inhibition of the Serotonin Transporter” (Pharmaceuticals, 2024)
